How the values were obtained:
Test in all cases: Uptake transporter inhibition
Type in all cases: in vitro ADME
[1] = molecular target: T1, OATP1B3 (Homo sapiens, UniProt Q9NPD5); settings: probe substrate pravastatin
T1 sequence (Q9NPD5 1-702): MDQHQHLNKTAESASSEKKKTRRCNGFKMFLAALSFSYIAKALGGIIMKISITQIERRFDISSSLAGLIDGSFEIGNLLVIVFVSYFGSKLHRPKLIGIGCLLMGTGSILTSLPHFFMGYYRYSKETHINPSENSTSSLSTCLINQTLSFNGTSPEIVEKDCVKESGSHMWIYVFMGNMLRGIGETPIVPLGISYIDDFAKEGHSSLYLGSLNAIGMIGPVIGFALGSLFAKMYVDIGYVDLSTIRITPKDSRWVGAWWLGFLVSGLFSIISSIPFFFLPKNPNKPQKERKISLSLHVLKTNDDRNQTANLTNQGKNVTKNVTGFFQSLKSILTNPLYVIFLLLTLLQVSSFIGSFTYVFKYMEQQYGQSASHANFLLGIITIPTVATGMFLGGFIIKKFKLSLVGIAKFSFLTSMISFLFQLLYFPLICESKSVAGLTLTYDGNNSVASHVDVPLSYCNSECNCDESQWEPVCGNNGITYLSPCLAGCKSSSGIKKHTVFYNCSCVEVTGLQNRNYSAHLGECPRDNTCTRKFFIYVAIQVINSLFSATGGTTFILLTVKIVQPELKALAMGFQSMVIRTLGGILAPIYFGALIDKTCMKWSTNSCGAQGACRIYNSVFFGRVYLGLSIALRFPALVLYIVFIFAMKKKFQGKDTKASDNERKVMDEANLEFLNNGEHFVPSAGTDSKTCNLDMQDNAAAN
Source text: (§1) The inhibition of cytochrome P450 (CYP) isoforms and a range of cellular transporters (except multidrug and toxin extrusion [MATE] proteins), as well as the induction of CYP isoforms were investigated using previously described methods.

[2] = molecular target: T2, OCT2 (Homo sapiens, UniProt O15244); settings: probe substrate 1-methyl-4-phenylpyridinium
T2 sequence (O15244 1-555): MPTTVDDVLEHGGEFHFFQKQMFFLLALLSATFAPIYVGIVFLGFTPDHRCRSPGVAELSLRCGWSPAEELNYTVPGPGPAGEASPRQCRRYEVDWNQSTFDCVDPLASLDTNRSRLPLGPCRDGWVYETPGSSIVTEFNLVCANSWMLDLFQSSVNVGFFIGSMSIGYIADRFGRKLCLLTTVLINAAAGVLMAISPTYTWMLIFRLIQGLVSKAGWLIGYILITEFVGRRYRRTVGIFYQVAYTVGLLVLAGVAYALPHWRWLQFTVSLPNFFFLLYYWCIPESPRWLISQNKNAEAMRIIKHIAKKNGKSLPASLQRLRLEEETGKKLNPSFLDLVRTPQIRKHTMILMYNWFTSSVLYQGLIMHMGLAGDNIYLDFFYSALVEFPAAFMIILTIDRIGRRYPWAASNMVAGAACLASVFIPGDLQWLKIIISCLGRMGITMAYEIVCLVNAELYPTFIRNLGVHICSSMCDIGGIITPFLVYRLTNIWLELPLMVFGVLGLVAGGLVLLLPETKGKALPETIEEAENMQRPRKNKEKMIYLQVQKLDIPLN
Source text: as §1

[3] = molecular target: T3, OATP1B1 (Homo sapiens, UniProt Q9Y6L6); settings: probe substrate pravastatin
T3 sequence (Q9Y6L6 1-691): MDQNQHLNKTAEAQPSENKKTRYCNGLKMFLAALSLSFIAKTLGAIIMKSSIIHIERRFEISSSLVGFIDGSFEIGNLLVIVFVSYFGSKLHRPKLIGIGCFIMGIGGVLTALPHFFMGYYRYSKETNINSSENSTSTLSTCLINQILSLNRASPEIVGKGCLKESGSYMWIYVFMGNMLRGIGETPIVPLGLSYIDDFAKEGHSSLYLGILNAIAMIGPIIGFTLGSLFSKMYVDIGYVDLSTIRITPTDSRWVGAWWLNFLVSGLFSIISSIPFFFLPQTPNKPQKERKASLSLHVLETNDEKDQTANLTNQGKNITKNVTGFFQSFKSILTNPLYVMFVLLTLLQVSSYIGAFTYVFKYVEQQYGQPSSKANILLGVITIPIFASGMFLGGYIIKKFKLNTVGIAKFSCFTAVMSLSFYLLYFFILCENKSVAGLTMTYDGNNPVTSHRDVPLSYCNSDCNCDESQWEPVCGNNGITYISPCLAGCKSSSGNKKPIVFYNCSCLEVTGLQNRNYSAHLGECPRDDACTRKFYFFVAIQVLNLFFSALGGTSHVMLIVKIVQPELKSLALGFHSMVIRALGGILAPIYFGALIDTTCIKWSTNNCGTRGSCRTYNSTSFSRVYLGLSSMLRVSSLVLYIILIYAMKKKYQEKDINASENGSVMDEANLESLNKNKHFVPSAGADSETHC
Source text: as §1

[4] = molecular target: T4, OAT3 (Homo sapiens, UniProt Q8TCC7); settings: probe substrate estrone-3-sulphate
T4 sequence (Q8TCC7 1-542): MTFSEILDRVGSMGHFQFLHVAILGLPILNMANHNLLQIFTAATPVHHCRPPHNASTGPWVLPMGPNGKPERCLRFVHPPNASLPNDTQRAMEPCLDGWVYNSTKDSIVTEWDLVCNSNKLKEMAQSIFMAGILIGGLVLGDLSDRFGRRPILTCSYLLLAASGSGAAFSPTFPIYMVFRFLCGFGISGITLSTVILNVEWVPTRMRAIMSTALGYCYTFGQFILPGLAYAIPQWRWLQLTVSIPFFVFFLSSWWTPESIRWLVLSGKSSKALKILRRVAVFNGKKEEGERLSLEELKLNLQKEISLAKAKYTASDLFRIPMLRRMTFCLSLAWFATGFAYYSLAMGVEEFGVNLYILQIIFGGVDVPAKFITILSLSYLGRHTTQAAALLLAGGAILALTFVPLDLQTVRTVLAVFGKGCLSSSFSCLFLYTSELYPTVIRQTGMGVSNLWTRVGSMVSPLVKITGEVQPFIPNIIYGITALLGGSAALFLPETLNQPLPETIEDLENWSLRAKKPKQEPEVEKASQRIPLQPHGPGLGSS
Source text: as §1

Structure (SMILES) | IC50 [1] [µM] | IC50 [2] [µM] | IC50 [3] [µM] | IC50 [4] [µM]
CC1CS(=O)(=O)CCN1n1cc(SCC(N)C(=O)O)ccc1=O (stereo not drawn) [M-4] | 10 | > 5 | > 20 | > 5
CC1CS(=O)(=O)CCN1N (stereo not drawn) [M-6] | > 50 | > 30 | > 50 | > 30
CC1CS(=O)(=O)CCN1/N=C/c1ccc([N+](=O)[O-])o1 (stereo not drawn) [Nifurtimox, (E)-N-(3-methyl-1,1-dioxo-1,4-thiazinan-4-yl)-1-(5-nitrofuran-2-yl) methanimine, reference compound] | > 50 | > 20 | > 50 | > 20

Source: PMC10661964 (Current Drug Metabolism, 2023)
